Values of other authors as cited in article PMC11419783 (Blood, 2024).

What was measured:
[1] = system: KMT2A-r cell lines engineered to express mutant menin (M327I or T349M); conditions: M327I or T349M in endogenous MEN1-coding sequence
[2] = system: KMT2A and NPM1 altered R/R acute leukemia; conditions: recommended phase 2 dose, NPM1-altered disease
[3] = system: Recombinant mutant MEN1 (MEN1^M327I, MEN1^T349M)

Compound | sensitivity of menin-mutant cell lines to antiproliferative effects [1] | complete remission/complete remission with partial recovery of peripheral blood counts [2] | binding affinity to mutant MEN1 [3]
COc1cc(-c2ccc(CN[C@H]3C[C@@H](O)[C@@H](N(C)c4ncnc5sc(CC(F)(F)F)cc45)C3)cc2)nnc1OC [DS-1594] | resistant | – | –
CNc1nc(NC2CCN(Cc3ccc4c(cc(C#N)n4C[C@H](C)N4CCN(S(C)(=O)=O)CC4)c3C)CC2)c2cc(CC(F)(F)F)sc2n1 [ziftomenib] | – | 35% | –
CCN(C(=O)c1cc(F)ccc1Oc1cncnc1N1CC2(CCN(C[C@H]3CC[C@H](NS(=O)(=O)CC)CC3)CC2)C1)C(C)C [revumenib] | resistant | – | significant reduction in binding affinity
CNc1nc(NC2CCN(Cc3ccc4c(cc(C#N)n4CC45CC(NC=O)(C4)C5)c3C)CC2)c2cc(CC(F)(F)F)sc2n1 [MI3454] | resistant | – | –
